Earlier results in patent US20230058142A1, “LIQUID PHARMACEUTICAL COMPOSITION COMPRISING CYTISINE” (priority 2019, published 2023).

Molecular target: nicotinic α4β2 receptors (Homo sapiens, UniProt P17787+P43681)
Conditions: read-out: Ki, affinity for nicotinic α4β2 receptors

Chain of nicotinic α4β2 receptors (P43681 29-627 limits assumed): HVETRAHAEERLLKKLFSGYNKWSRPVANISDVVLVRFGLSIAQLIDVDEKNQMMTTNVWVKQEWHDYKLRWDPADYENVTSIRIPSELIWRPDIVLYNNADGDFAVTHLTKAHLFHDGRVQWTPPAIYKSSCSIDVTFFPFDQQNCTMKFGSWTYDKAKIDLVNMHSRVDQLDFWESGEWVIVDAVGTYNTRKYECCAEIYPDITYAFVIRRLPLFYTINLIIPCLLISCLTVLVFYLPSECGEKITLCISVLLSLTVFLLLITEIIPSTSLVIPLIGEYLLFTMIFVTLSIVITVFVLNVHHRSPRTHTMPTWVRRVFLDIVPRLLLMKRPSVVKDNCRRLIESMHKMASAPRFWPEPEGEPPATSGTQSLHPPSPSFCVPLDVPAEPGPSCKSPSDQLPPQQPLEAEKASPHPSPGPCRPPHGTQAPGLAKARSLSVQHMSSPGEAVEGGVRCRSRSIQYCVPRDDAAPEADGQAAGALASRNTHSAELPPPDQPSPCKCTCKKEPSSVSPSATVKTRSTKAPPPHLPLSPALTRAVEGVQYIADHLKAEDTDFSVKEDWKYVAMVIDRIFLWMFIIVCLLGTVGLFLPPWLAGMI
Chain of nicotinic α4β2 receptors (P17787 26-502): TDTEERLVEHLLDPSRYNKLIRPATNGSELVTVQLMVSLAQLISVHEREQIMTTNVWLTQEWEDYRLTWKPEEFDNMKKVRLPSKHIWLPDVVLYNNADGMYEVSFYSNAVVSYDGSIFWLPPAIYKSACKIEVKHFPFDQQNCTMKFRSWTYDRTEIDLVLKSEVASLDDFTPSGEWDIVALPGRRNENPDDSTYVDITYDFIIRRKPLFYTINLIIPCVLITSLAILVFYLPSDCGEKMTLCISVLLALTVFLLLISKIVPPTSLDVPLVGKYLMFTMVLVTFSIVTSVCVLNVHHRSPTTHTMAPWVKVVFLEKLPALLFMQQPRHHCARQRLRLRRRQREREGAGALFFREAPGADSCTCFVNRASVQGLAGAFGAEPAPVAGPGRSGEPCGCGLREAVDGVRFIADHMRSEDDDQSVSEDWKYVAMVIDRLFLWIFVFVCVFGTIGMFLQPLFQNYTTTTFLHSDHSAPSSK

For O=c1cccc2n1C[C@@H]1CNC[C@H]2C1 [Cytisine, (1R-cis)-1,2,3,4,5,6-hexahydro-1,5-methano-8H-pyrido[1,2-a][1,5]diazocin-8-one], the Ki is given as 450 nM.
